Values quoted from earlier work as cited in paper PMC6259197, “Alkaloids from Stems of Esenbeckia leiocarpa Engl. (Rutaceae) as Potential Treatment for Alzheimer Disease” (Molecules, 2010).

Columns and labels:
[1] = test system: Leucoagaricus gongylophorus; parameters: method as in doi:10.1590/S0103-50532002000100010; settings: alkaloids from Raulinoa echinata; symbiotic fungus of leaf-cutting ants
[2] = test system: brine shrimp; settings: alkaloids isolated from leaves of E. belizencis
[3] = test system: Pectinophora gossypiella; parameters: method as in PMID 1965201; settings: activity of extract attributed to leiokinine A and B

Compound	antifungal activity against Leucoagaricus gongylophorus [1]	brine shrimp toxicity LC50 [2]	mutagenic activity	antifeedant activity against pink bollworm [3]
COc1c2ccoc2nc2c(OC)c3c(cc12)OCO3 [flindersiamine]	antifungal activity	> 1,000 ppm	–	–
COc1ccc2c(OC)c3ccoc3nc2c1OC [skimmianine]	antifungal activity	–	weak mutagenic activity	–
COc1c2cc3c(cc2nc2occc12)OCO3 [maculine]	antifungal activity	–	–	–
leiokinine B	–	–	–	weak antifeedant activity
COc1cc2nc3occc3c(OC)c2cc1OC [kokusaginine]	antifungal activity	367 ppm	weak mutagenic activity	–
CCCc1c(OC)c(=O)c2ccccc2n1C [leiokinine A]	–	–	–	weak antifeedant activity
